Experimental data from ChEMBL document CHEMBL6092215, “A Prostate-Specific Membrane Antigen-Targeting Small Molecule-Drug Conjugate Strategy to Overcome the Hematological Toxicity of Olaparib” (J Med Chem, 2024).
Calls of active or inactive are those of the source. No cut-off for these calls is given here.

Assays:
[1] = test system: LNCaP; test: Antiproliferative activity against human LNCaP cells with high PSMA expression assessed as effect on cell viability incubated for 72 hrs by MTT assay; format: functional, cell-based
[2] = test system: CWR22R; test: Antiproliferative activity against human 22Rv1 cells with high PSMA expression assessed as effect on cell viability incubated for 72 hrs by MTT assay; format: functional, cell-based; settings: 22Rv1, 72 h
[3] = test system: PC-3; test: Antiproliferative activity against PSMA negative human PC-3 cells assessed as effect on cell viability incubated for 72 hrs by MTT assay; format: functional
[4] = Antiproliferative activity against PSMA negative human RWPE-1 cells assessed as effect on cell viability incubated for 72 hrs by MTT assay; format: toxicity, cell-based; settings: RWPE-1 cells (PSMA negative)
[5] = biological target: Poly [ADP-ribose] polymerase 1 (Homo sapiens, UniProt P09874); test: Inhibition of PARP1 (unknown origin) by biotinylated NAD+-based luminescence assay
Sequence of Poly [ADP-ribose] polymerase 1 (P09874 whole entry): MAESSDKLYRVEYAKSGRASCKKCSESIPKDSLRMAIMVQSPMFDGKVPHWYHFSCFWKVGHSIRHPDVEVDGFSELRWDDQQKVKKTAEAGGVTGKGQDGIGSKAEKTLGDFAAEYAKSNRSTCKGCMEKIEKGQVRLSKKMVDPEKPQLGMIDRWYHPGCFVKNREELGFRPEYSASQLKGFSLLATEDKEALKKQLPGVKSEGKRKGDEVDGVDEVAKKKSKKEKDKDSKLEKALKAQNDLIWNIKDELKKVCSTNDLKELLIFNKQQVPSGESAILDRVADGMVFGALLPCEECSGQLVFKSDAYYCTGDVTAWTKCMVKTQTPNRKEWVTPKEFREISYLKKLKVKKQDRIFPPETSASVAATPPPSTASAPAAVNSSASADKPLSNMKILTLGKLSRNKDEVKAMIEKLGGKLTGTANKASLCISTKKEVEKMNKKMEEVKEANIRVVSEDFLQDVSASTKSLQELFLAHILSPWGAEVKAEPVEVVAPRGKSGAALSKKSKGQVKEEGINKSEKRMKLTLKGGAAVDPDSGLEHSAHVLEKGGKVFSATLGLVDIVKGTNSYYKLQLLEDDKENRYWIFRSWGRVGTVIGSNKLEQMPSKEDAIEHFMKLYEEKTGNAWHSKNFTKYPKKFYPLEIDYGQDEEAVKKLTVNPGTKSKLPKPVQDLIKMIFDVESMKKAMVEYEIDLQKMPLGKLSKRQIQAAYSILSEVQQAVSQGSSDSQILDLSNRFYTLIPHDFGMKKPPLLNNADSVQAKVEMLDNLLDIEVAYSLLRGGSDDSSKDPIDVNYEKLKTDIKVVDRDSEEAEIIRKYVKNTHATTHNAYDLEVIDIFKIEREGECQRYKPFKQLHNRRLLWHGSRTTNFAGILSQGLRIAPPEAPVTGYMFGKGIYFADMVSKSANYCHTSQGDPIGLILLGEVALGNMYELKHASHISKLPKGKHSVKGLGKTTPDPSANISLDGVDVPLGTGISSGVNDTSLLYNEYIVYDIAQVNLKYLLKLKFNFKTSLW

[6] = test system: CWR22R; test: Induction of DNA damage in human 22Rv1 cells assessed as increase in number of gamma-H2AX foci incubated for 12 hrs by DAPI staining based immunofluorescence analysis; format: functional, cell-based; settings: dose 50-200 µM
[7] = test system: CWR22R; test: Induction of apoptosis in human 22Rv1 cells assessed as increase in cleaved caspase-3 expression at 100 uM incubated for 72 hrs by Western blot analysis; format: functional, cell-based
[8] = test system: CWR22R; test: Antiproliferative activity against human 22Rv1 cells assessed as reduction in cell viability at 125 uM in presence of DUPA; format: functional, cell-based
[9] = Drug uptake in PSMA positive human 22Rv1 cells at 10 uM measured after 1 to 6 hrs by LC-MS/MS analysis; format: ADME, cell-based; settings: cwr22r, time 1-6 hrs
[10] = Drug uptake in PSMA positive human 22Rv1 cells at 10 uM measured after 1 to 6 hrs in presence of PSMA ligand DUPA by LC-MS/MS analysis; format: ADME, cell-based; settings: cwr22r, time 1-6 hrs
[11] = Half-life in Sprague-Dawley rat at 100 mg/kg, po measured after 24 hrs by UPLC-MS/MS analysis; format: ADME, organism-based; settings: in vivo
[12] = Tmax in Sprague-Dawley rat at 100 mg/kg, po measured after 24 hrs by UPLC-MS/MS analysis; format: ADME, organism-based; settings: in vivo
[13] = Cmax in Sprague-Dawley rat at 100 mg/kg, po measured after 24 hrs by UPLC-MS/MS analysis; format: ADME, organism-based; settings: in vivo
[14] = AUC (0 to t) in Sprague-Dawley rat at 100 mg/kg, po measured after 24 hrs by UPLC-MS/MS analysis; format: ADME, organism-based; settings: in vivo
[15] = AUC (0 to infinity) in Sprague-Dawley rat at 100 mg/kg, po measured after 24 hrs by UPLC-MS/MS analysis; format: ADME, organism-based; settings: in vivo
[16] = Oral bioavailability in Sprague-Dawley rat at 100 mg/kg measured after 24 hrs by UPLC-MS/MS analysis; format: ADME, organism-based; settings: in vivo
[17] = Half-life in Sprague-Dawley rat at 5 mg/kg, iv measured after 24 hrs by UPLC-MS/MS analysis; format: ADME, organism-based; settings: in vivo
[18] = C0 in Sprague-Dawley rat at 5 mg/kg, iv measured after 24 hrs by UPLC-MS/MS analysis; format: ADME, organism-based; settings: in vivo
[19] = Volume of distribution in Sprague-Dawley rat at 5 mg/kg, iv measured after 24 hrs by UPLC-MS/MS analysis; format: ADME, organism-based; settings: in vivo
[20] = Clearance in Sprague-Dawley rat at 5 mg/kg, iv measured after 24 hrs by UPLC-MS/MS analysis; format: ADME, organism-based; settings: in vivo
[21] = AUC (0 to t) in Sprague-Dawley rat at 5 mg/kg, iv measured after 24 hrs by UPLC-MS/MS analysis; format: ADME, organism-based; settings: in vivo
[22] = AUC (0 to infinity) in Sprague-Dawley rat at 5 mg/kg, iv measured after 24 hrs by UPLC-MS/MS analysis; format: ADME, organism-based; settings: in vivo
[23] = Subacute toxicity in male ICR mouse assessed as decrease in body weight at 175 mg/kg, po administered via gavage for 30 days; format: organism-based; settings: in vivo, 720 h, time 30 day
[24] = Subacute toxicity in male ICR mouse assessed as decrease in red blood cells at 175 mg/kg, po administered via gavage for 30 days by blood routine test; format: organism-based; settings: in vivo, 720 h, time 30 day
[25] = Subacute toxicity in male ICR mouse assessed as decrease in hemoglobin at 175 mg/kg, po administered via gavage for 30 days by blood routine test; format: organism-based; settings: in vivo, 720 h, time 30 day
[26] = Subacute toxicity in male ICR mouse assessed as decrease in hematocrit at 175 mg/kg, po administered via gavage for 30 days by blood routine test; format: organism-based; settings: in vivo, 720 h, time 30 day
[27] = Subacute toxicity in male ICR mouse assessed as decrease in WBC at 175 mg/kg, po administered via gavage for 30 days by blood routine test; format: organism-based; settings: in vivo, 720 h, time 30 day
[28] = Subacute toxicity in male ICR mouse assessed as decrease in neutrophils at 175 mg/kg, po administered via gavage for 30 days by blood routine test; format: organism-based; settings: in vivo, 720 h, time 30 day
[29] = Subacute toxicity in male ICR mouse assessed as decrease in lymphocytes at 175 mg/kg, po administered via gavage for 30 days by blood routine test; format: organism-based; settings: in vivo, 720 h, time 30 day
[30] = test system: CWR22R; test: Antitumor activity against human 22Rv1 cells xenografted in male BALB/c nude mouse at 175 mg/kg administered via gavage; format: functional, organism-based
[31] = Toxicity in male BALB/c nude mouse xenografted with human 22Rv1 cells assessed as decrease in body weight at 175 mg/kg administered via gavage; format: organism-based; settings: in vivo, po
[32] = test system: CWR22R; test: Antitumor activity against human 22Rv1 cells xenografted in male BALB/c nude mouse assessed as tumor growth inhibition at 175 mg/kg administered via gavage relative to control; format: functional; settings: 22Rv1, po, read-out: TGI

In the case of `O=C(O)CC[C@H](NC(=O)N[C@@H](CCCCNC(=O)CCC(=O)N1CCN(C(=O)c2cc(Cc3n[nH]c(=O)c4ccccc34)ccc2F)CC1)C(=O)O)C(=O)O`, the IC50 [1] is reported as 93.9 µM, the IC50 [2] is reported as 133 µM and the CC50 [3] is reported as > 1000 µM. For the same compound, the CC50 at 72 h [4] was > 1000 µM, the IC50 [5] was 0.0019 µM and the Activity [6] was “Dose-dependent-effect”. For the same compound, the Activity [7] was “Active; Similar To Olaparib-Treated Group”, the Activity [8] was “Not active; Drug Mode Of Action Appears To Be Via Binding To Psma Receptor” and the Drug uptake [9] was “Active”. For the same compound, the Drug uptake [10] was “Not_active”, the half-life [11] was 54.8 min and the Tmax [12] was 60 min. It also gave a Cmax [13] of 5260 ng/mL, an AUC(0-t) at 24 h [14] of 16300 ng·h/mL and an AUC(0-inf) [15] of 16500 ng·h/mL. For the same compound, the bioavailability [16] was 11%, the half-life [17] was 22.7 min and the C0 at 24 h [18] was 12800 ng/mL. For the same compound, the Vd [19] was 0.391 L/kg, the clearance [20] was 12 mL/min/kg and the AUC(0-t) at 24 h [21] was 7300 ng·h/mL. The AUC(0-inf) [22] was 7460 ng·h/mL, the Activity [23] was “Non-toxic” and the Activity [24] was “Non-toxic”. For the same compound, the Activity [25] was “Non-toxic”, the Activity [26] was “Non-toxic” and the Activity [27] was “Non-toxic”. The Activity [28] was “Non-toxic”, the Activity [29] was “Non-toxic” and the Activity [30] was “Active”. The Activity [31] was “Non-toxic” and the inhibition in vivo at 175 mg/kg [32] was 69%.
